Holding throughout (type): in vivo
In test [1] the test system is common cutworm (Spodoptera Litura). As to the kind of experiment: Insecticidal effect on common cutworm (Test Example 2). To be noted: 500 ppm, 25° C.; for Insecticidal effect (Test Example 2), judged from mortality / Insecticidal effect on common cutworm (Test Example 2), judged grade: cabbage leaf dip; for Insecticidal effect (Test Example 2), judged from mortality: 8 days after inoculation; for Insecticidal effect, Test Example 2: cabbage leaf immersed; for Insecticidal effect, Test Example 2 / Insecticidal effect on common cutworm (Test Example 2), judged grade: eight days after inoculation; for Insecticidal effect on common cutworm (Test Example 2), judged grade: second-instar larvae. Here is the method:
Insecticidal effect on common cutworm (Spodoptera Litura)
After air-drying, it was placed in a plastic Petri dish with a diameter of 9 cm and inoculated with second-instar larvae of common cutworm, after which the dish was closed and then allowed to stand in a room thermostated at 25° C. Eight days after the inoculation, the dead and alive were counted. The mortality was calculated according to the following equation and the insecticidal effect was judged according to the criterion shown in Test Example 1. The test was carried out with triplicate groups of 10 insects. [formula]

Test [2] deals with diamondback moth (Plutella xylostella). Put plainly: Insecticidal effect on diamondback moth (Test Example 1). The following applies: diamondback moth; for Insecticidal effect (Test Example 1), judged from mortality: judged by the criterion of Test Example 1; for Insecticidal effect, Test Example 1: judged by the mortality criterion of Test Example 1. In outline:
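Read-out was mortality from hatched-insect counts taken 6 days after the egg-bearing cabbage seedling was immersed, graded by set criteria. Seedlings were air-dried and kept at 25° C after treatment. Groups of 10 insects, in triplicate.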

The subject of test [3] is rice leafroller (Cnaphalocrocis medinalis). Put plainly: Insecticidal effect on rice leafroller (Test Example 3). To be noted: 500 ppm, rice lamina dip, third-instar larvae of rice leafroller, 4 days after inoculation, 25° C., humidity 70%. In outline: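 Groups of 10 third-instar larvae, in triplicate, are placed on air-dried lamina resting on wet filter paper. Incubation runs four days at 25° C with 70% humidity before survivors and dead are tallied.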

Setting [4] is: second-instar larvae of common cutworm.
Setting [5] is: common cutworm second-instar larvae.

Regarding `Cc1cc2c(cc1NC(=O)c1cccc(Cl)c1C(=O)NC(C)C)OC(F)(F)C(F)O2` (racemic) [compound 1597], in test [1] (setting [4]), the “Insecticidal effect (Test Example 2), judged from mortality” value is on record as “A (100)”. Also, the “Insecticidal effect (Test Example 1), judged from mortality” value in test [2] was “A (100)”.
Consider `Cc1cc2c(cc1NC(=O)c1cccc(I)c1C(=O)NC(C)C)OC(F)(F)C(F)O2` (racemic) [compound 1598], for which, in test [1] (setting [4]), the “Insecticidal effect (Test Example 2), judged from mortality” value is listed as “A (100)”. Moreover, the “Insecticidal effect (Test Example 1), judged from mortality” value in test [2] was “A (100)”.
`Cc1cc2c(cc1NC(=O)c1cccc(I)c1C(=O)NC(C)(C)C)OC(F)(F)C(F)O2` (racemic) [compound 1599]: the “Insecticidal effect (Test Example 2), judged from mortality” value in test [1] (setting [4]) is given as “A (100)”. For the same molecule, the “Insecticidal effect (Test Example 1), judged from mortality” value in test [2] is recorded as “A (100)”.
With `CC(C)NC(=O)c1c(I)cccc1C(=O)Nc1cc2c(cc1Cl)OC(F)C(F)(F)O2` (racemic) [compound 1600], the “Insecticidal effect (Test Example 2), judged from mortality” value in test [1] (setting [4]) was “A (100)”. Also, the “Insecticidal effect (Test Example 1), judged from mortality” value in test [2] is “A (100)”.
In the case of `CC(C)NC(=O)c1c(I)cccc1C(=O)Nc1cc2c(cc1Cl)OC(F)(F)C(F)O2` (racemic) [compound 1601], the “Insecticidal effect (Test Example 2), judged from mortality” value in test [1] (setting [4]) was “A (100)”. In addition, the “Insecticidal effect (Test Example 1), judged from mortality” value in test [2] is given as “A (100)”.
For the molecule `CNC(=O)c1ccccc1C(=O)Nc1ccc(C(F)(F)F)cc1` [compound 2], the “Insecticidal effect, Test Example 2” value in test [1] (setting [4]) is recorded as “C (89-80)”. The “Insecticidal effect, Test Example 1” value in test [2] was “A (100)”.
In the same order, the values of `CCN(CC)C(=O)c1ccccc1C(=O)Nc1ccc(C(F)(F)F)cc1` [compound 12] are “D (79-50)” and “A (100)”.
In the same order, the values of `CC(C)NC(=O)c1ccccc1C(=O)Nc1ccc([N+](=O)[O-])cc1` [compound 22] are “D (79-50)” and “A (100)”.
For the molecule `CC(C)NC(=O)c1ccccc1C(=O)Nc1ccc(SC(F)(F)C(F)F)cc1` [compound 34], in test [1] (setting [4]), the “Insecticidal effect, Test Example 2” value was “C (89-80)”. In addition, the “Insecticidal effect, Test Example 1” value in test [2] is reported as “A (100)”.
As for `CC(C)NC(=O)c1ccccc1C(=O)Nc1ccc(F)c(F)c1` [compound 43], in test [1] (setting [4]), the “Insecticidal effect, Test Example 2” value is recorded as “D (79-50)”. The “Insecticidal effect, Test Example 1” value in test [2] is “B (99-90)”.
In the same order, the values of `Cc1cc(OCC(F)(F)C(F)F)ccc1NC(=O)c1cccc(Cl)c1C(=O)NC(C)C` [compound 147] are “C (89-80)” and “A (100)”.
In the same order, the values of `CC(C)NC(=O)c1c(Cl)cccc1C(=O)Nc1ccc(OC(F)F)c(C(F)(F)F)c1` [compound 164] are “A (100)” and “A (100)”.
In the same order, the values of `CC(C)NC(=O)c1cc(Cl)ccc1C(=O)Nc1ccc(F)cc1` [compound 169] are “D (79-50)” and “A (100)”.
Regarding `CC(C)NC(=O)c1ccc(Cl)cc1C(=O)Nc1ccccc1` [compound 181], the “Insecticidal effect, Test Example 2” value in test [1] (setting [4]) is “A (100)”.
`Cc1ccccc1NC(=O)c1cc(Cl)ccc1C(=O)NC(C)C` [compound 183]: the “Insecticidal effect, Test Example 2” value in test [1] (setting [4]) is “B (99-90)”. Moreover, in test [2], the “Insecticidal effect, Test Example 1” value was “A (100)”.
In the same order, the values of `Cc1cc(OC(F)F)ccc1NC(=O)c1cc(Cl)ccc1C(=O)NC(C)C` [compound 193] are “D (79-50)” and “A (100)”.
As for `Cc1ccc(Cl)cc1NC(=O)c1c(Cl)cccc1C(=O)NC(C)C` [compound 215], in test [1] (setting [4]), the “Insecticidal effect, Test Example 2” value is given as “D (79-50)”. Moreover, the “Insecticidal effect, Test Example 1” value in test [2] is reported as “A (100)”.
Turning to `Cc1cc(OC(F)(F)C(F)OC(F)(F)F)ccc1NC(=O)c1c(Cl)cccc1C(=O)NC(C)C` (centres unmarked) [compound 244], the “Insecticidal effect, Test Example 2” value in test [1] (setting [4]) is listed as “C (89-80)”. In addition, in test [2], the “Insecticidal effect, Test Example 1” value is “A (100)”.
Regarding `Cc1cc(OC(F)F)c(Cl)cc1NC(=O)c1c(Cl)cccc1C(=O)NC(C)C` [compound 245], the “Insecticidal effect, Test Example 2” value in test [1] (setting [4]) is “D (79-50)”. In addition, the “Insecticidal effect, Test Example 1” value in test [2] is reported as “A (100)”.
In the same order, the values of `Cc1cc(Oc2c(F)c(F)c(F)c(F)c2F)ccc1NC(=O)c1c(Cl)cccc1C(=O)NC(C)C` [compound 248] are “C (89-80)” and “A (100)”.
In the same order, the values of `CC(C)NC(=O)c1cccc(Cl)c1C(=O)Nc1ccc(OC(F)F)c(C(F)(F)F)c1` [compound 254] are “A (100)” and “A (100)”.
In the same order, the values of `Cc1ccc(NC(=O)c2c(Br)cccc2C(=O)NC(C)C)c(C)c1Cl` [compound 309] are “A (100)” and “A (100)”.
As to `COc1ccc(NC(=O)c2c(Br)cccc2C(=O)NC(C)C)c(C)c1C` [compound 321], in test [1] (setting [4]), the “Insecticidal effect, Test Example 2” value was “A (100)”. In addition, the “Insecticidal effect, Test Example 1” value in test [2] is given as “A (100)”.
As for `CC(C)NC(=O)c1cccc(I)c1C(=O)Nc1ccc(SC(F)(F)C(F)(F)C(F)(F)F)cc1` [compound 424], in test [1] (setting [4]), the “Insecticidal effect, Test Example 2” value was “A (100)”. The “Insecticidal effect, Test Example 1” value in test [2] is “A (100)”.
For `Cc1ccc(NC(=O)c2c(I)cccc2C(=O)NC(C)C)c(C)c1Cl` [compound 429], the “Insecticidal effect, Test Example 2” value in test [1] (setting [4]) is reported as “D (79-50)”. For the same molecule, the “Insecticidal effect, Test Example 1” value in test [2] is on record as “A (100)”.
As to `CC(C)NC(=O)c1c(C(=O)Nc2cc(C(F)(F)F)cc(C(F)(F)F)c2)cccc1[N+](=O)[O-]` [compound 654], the “Insecticidal effect on common cutworm (Test Example 2), judged grade” value in test [1] was “D (79-50)”.
Still for that read-out and setting: for `CSc1cccc(C(=O)NC(C)C)c1C(=O)Nc1cccc(Cl)c1C` [compound 785] the value was “A (100)”; for `Cc1ccc(OCCNC(=O)c2c(C(=O)Nc3cc(Cl)ccc3C)cccc2[N+](=O)[O-])c(C)c1` [compound 880], “D (79-50)”.
In the case of `Cc1cc(C#Cc2ccc(Cl)cc2Cl)ccc1NC(=O)c1cccc(I)c1C(=O)NC(C)C` [compound 972], the “Insecticidal effect, Test Example 2” value in test [1] (setting [5]) is on record as “A (100)”.
On the same count and under the same terms, then `CC(C)NC(=O)c1ccccc1C(=O)Nc1ccc(SC(F)(F)F)cc1` [compound 1123], with “A (100)”.
As for `CC(C)NC(=O)c1c(I)cccc1C(=O)Nc1ccc2c(c1Cl)OC(F)(F)C(F)(F)O2` [compound 1732], in test [1] (setting [4]), the “Insecticidal effect (Test Example 2), judged from mortality” value is on record as “A (100)”.
For `CC(C)(C)NC(=O)c1c(I)cccc1C(=O)Nc1c(Cl)cc(Cl)c2c1OC(F)(F)O2` [compound 1748], the “Insecticidal effect (Test Example 3), judged from mortality” value in test [3] is “A (100)”. In test [2], the “Insecticidal effect (Test Example 1), judged from mortality” value is “A (100)”.
As for `C=CCON=C(C)c1ccc(NC(=O)c2cccc(I)c2C(=O)NC(C)C)cc1` [compound 1750], the “Insecticidal effect (Test Example 3), judged from mortality” value in test [3] was “A (100)”. In addition, the “Insecticidal effect (Test Example 1), judged from mortality” value in test [2] is “A (100)”.
Turning to `CCN(CC)C(=O)c1ccccc1C(=O)Nc1ccc(Cl)cc1C` [compound 1752], the “Insecticidal effect (Test Example 3), judged from mortality” value in test [3] was “A (100)”. In test [2], the “Insecticidal effect (Test Example 1), judged from mortality” value is recorded as “A (100)”.
Regarding `CC(C)NC(=O)c1c(I)cccc1C(=O)Nc1ccc(C(C)C)c2scnc12` [compound 1763], the “Insecticidal effect (Test Example 3), judged from mortality” value in test [3] was “A (100)”. Further, the “Insecticidal effect (Test Example 1), judged from mortality” value in test [2] is given as “A (100)”.
As to `CC(C)NC(=O)c1c(I)cccc1C(=O)Nc1ccc(C(F)(C(F)(F)F)C(F)(F)F)cc1Oc1ccccc1` [compound 1768], the “Insecticidal effect (Test Example 3), judged from mortality” value in test [3] is “A (100)”. In test [2], the “Insecticidal effect (Test Example 1), judged from mortality” value is “A (100)”.
`Cc1cc(C(F)(C(F)(F)F)C(F)(F)F)ccc1NC(=O)c1cccc(I)c1C(=O)NCCc1cccnc1` [compound 1770]: the “Insecticidal effect (Test Example 3), judged from mortality” value in test [3] is on record as “A (100)”. The “Insecticidal effect (Test Example 1), judged from mortality” value in test [2] was “A (100)”.
Consider `Cc1cc(OC(F)(F)F)ccc1NC(=O)c1cccc(I)c1C(=O)NCCc1cccnc1` [compound 1772], for which the “Insecticidal effect (Test Example 3), judged from mortality” value in test [3] was “A (100)”. Further, the “Insecticidal effect (Test Example 1), judged from mortality” value in test [2] is given as “A (100)”.
`Cc1cc(C(F)(C(F)(F)F)C(F)(F)F)ccc1NC(=O)c1c(I)cccc1C(=O)NC(C)c1ccccn1` (centres unmarked) [compound 1774]: the “Insecticidal effect (Test Example 3), judged from mortality” value in test [3] is listed as “A (100)”. The “Insecticidal effect (Test Example 1), judged from mortality” value in test [2] is recorded as “A (100)”.
`Cc1cc(OC(F)(F)F)ccc1NC(=O)c1cccc(I)c1C(=O)NC(C)c1ccccn1` (centres unmarked) [compound 1775]: the “Insecticidal effect (Test Example 3), judged from mortality” value in test [3] is “A (100)”. Further, the “Insecticidal effect (Test Example 1), judged from mortality” value in test [2] is “A (100)”.
With `Cc1cc(OC(F)(F)F)ccc1NC(=O)c1c(I)cccc1C(=O)NC(C)c1ccccn1` (centres unmarked) [compound 1776], in test [3], the “Insecticidal effect (Test Example 3), judged from mortality” value is listed as “A (100)”. In addition, in test [2], the “Insecticidal effect (Test Example 1), judged from mortality” value is given as “A (100)”.
Turning to `Cc1cc(C(F)(F)C(F)(F)F)ccc1NC(=O)c1c(I)cccc1C(=O)NC(C)c1ccccn1` (centres unmarked) [compound 1778], the “Insecticidal effect (Test Example 3), judged from mortality” value in test [3] is on record as “A (100)”. For the same molecule, the “Insecticidal effect (Test Example 1), judged from mortality” value in test [2] is listed as “A (100)”.

The values above are taken from US6362369B1, “Phthalic acid diamide derivatives fluorine-containing aniline compounds as starting material, agricultural and horticultural insecticides, and a method for application of the insecticides” (Nihon Nohyaku Co., Ltd., priority 1997, dated 2002).
